ChEMBL document CHEMBL1136048, “2a-[4-(Tetrahydropyridoindol-2-yl)butyl]tetrahydrobenzindole derivatives: new selective antagonists of the 5-hydroxytryptamine7 receptor” (J Med Chem, 2002)
pKi: −log10 of the molar value.

Columns and labels:
[1] = target: Serotonin 2 (5-HT2) receptor (Rattus norvegicus, UniProt P30994+P08909+P14842); assay: In vitro binding affinity to 5-hydroxytryptamine 2 receptor of rat cerebral cortex membranes using [3H]ketanserin as the radioligand; format: tissue-based, Membrane
[2] = target: 5-hydroxytryptamine receptor 7 (Homo sapiens, UniProt P34969); assay: Binding affinity to human recombinant 5-hydroxytryptamine 7 receptor in mammalian cells using [3H]5-CT as radioligand; format: cell-based
Sequence of 5-hydroxytryptamine receptor 7 (P34969 whole entry): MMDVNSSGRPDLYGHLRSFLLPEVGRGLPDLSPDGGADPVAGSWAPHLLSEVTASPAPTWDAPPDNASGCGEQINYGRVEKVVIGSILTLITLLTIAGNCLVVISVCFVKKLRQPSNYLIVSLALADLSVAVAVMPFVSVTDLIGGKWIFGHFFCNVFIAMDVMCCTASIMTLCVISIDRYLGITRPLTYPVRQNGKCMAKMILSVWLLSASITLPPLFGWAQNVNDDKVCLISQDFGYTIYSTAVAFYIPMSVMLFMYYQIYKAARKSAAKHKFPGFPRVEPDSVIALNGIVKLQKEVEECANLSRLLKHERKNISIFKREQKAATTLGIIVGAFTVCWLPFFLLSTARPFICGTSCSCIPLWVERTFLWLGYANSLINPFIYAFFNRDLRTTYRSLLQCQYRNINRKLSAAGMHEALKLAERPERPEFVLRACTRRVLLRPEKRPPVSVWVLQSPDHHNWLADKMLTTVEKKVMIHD

[3] = target: 5-hydroxytryptamine receptor 4 (Cavia porcellus, UniProt O70528); assay: In vitro binding affinity at 5-hydroxytryptamine 4 receptor in guinea pig striatum using 3[H]GR-113808 as the radioligand; format: tissue-based
Sequence of 5-hydroxytryptamine receptor 4 (O70528 whole entry): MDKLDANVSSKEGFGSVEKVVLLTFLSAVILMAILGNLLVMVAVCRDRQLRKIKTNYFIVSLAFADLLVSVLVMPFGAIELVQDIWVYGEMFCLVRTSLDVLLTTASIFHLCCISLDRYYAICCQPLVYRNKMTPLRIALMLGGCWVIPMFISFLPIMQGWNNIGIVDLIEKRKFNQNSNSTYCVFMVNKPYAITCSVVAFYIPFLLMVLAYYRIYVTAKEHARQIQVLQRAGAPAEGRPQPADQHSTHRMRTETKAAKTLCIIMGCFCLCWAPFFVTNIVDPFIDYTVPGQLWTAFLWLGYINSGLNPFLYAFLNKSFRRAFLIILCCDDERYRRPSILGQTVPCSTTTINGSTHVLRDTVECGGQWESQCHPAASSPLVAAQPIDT

[4] = target: 5-hydroxytryptamine receptor 6 (Homo sapiens, UniProt P50406); assay: In vitro binding affinity at human recombinant 5-hydroxytryptamine 6 receptor in mammalian cells using 3[H]LSD as the radioligand; format: cell-based
Sequence of 5-hydroxytryptamine receptor 6 (P50406 whole entry): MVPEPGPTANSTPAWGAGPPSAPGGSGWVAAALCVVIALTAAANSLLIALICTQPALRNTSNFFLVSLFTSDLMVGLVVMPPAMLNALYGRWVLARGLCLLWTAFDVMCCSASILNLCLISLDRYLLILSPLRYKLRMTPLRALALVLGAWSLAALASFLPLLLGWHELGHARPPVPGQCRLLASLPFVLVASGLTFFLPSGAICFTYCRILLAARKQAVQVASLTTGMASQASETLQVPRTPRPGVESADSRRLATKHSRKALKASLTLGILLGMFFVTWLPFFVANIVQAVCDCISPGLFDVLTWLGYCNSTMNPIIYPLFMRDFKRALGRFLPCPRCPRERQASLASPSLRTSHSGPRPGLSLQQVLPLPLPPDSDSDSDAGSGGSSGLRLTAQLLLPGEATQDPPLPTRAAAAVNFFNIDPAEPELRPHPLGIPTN

[5] = target: T1, 5-hydroxytryptamine receptor 1A (Homo sapiens, UniProt P08908); assay: In vitro binding affinity at human recombinant 5-hydroxytryptamine 1A receptor in mammalian cells using 3[H]8-OH-DPAT as the radioligand; format: cell-based
T1 sequence (P08908 whole entry): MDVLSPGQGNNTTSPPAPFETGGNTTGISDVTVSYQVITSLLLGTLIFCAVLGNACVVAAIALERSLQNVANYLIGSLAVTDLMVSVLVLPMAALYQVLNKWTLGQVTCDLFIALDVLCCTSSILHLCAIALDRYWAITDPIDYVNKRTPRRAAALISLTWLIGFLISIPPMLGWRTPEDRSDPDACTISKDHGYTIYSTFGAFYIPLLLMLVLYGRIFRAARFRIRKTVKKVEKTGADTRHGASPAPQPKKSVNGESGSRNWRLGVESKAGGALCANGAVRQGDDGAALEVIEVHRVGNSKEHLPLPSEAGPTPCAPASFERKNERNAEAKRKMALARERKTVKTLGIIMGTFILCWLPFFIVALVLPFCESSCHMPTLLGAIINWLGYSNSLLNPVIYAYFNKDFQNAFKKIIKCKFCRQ

[6] = target: 5-hydroxytryptamine receptor 1B (Rattus norvegicus, UniProt P28564); assay: In vitro binding affinity at 5-hydroxytryptamine 1B receptor in rat striatal […] using [125I](-)-iodocyanopindolol as the radioligand
Sequence of 5-hydroxytryptamine receptor 1B (P28564 whole entry): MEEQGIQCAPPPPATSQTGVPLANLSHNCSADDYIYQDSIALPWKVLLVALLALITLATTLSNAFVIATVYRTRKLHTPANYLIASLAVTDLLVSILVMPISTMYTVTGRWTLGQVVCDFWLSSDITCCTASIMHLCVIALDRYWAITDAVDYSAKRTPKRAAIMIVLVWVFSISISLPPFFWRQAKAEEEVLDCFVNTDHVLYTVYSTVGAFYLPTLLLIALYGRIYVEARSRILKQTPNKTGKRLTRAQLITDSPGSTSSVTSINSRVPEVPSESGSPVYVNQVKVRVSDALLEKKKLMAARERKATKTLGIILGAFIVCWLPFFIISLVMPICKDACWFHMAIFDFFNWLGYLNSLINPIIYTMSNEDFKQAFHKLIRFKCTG

[7] = target: T2, Serotonin 3 receptor (5HT3) (Mus musculus, UniProt Q9JHJ5+P23979); assay: In vitro binding affinity at 5-hydroxytryptamine 3 receptor in N1E-115 cells using 3[H]GR-65630 as the radioligand; format: cell-based
T2 sequence (Q9JHJ5 whole entry): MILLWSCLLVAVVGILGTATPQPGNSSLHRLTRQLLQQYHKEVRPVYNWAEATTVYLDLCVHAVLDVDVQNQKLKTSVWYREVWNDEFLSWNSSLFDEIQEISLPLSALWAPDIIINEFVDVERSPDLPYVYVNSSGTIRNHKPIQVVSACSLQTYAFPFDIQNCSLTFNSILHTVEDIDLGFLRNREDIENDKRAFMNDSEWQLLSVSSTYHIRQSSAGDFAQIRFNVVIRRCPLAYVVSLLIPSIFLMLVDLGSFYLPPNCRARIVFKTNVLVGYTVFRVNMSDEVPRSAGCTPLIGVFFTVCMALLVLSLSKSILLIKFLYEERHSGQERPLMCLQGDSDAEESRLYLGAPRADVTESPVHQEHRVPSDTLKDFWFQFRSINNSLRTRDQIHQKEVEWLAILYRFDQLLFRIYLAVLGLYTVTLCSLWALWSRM
T2 sequence (P23979 whole entry): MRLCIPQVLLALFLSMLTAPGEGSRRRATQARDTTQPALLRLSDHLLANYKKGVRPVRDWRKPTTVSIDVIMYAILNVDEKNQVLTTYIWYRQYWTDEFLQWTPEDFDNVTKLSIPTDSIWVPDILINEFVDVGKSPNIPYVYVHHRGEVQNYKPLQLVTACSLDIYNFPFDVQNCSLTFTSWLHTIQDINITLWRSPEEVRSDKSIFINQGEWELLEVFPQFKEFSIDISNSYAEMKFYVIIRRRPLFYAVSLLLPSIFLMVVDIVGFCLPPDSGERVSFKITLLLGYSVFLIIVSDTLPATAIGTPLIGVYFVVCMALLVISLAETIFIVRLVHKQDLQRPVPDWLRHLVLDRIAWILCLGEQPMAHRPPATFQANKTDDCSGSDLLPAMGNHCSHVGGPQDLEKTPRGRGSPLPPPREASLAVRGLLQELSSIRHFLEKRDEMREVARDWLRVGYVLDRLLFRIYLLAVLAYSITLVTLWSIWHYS

Row | Structure (SMILES) | Log Ki [1] | pKi [2] | further results
1 | O=C1Nc2cccc3c2C1(CCCCN1CCC(c2ccccc2)CC1)CCC3 (stereo not drawn) | -6.84 | 8.40 | –
2 | NCCc1c[nH]c2ccc(C(N)=O)cc12 | < -6 | – | –
3 | O=C1Nc2cccc3c2C1(CCCCN1CCN(C2CCCCC2)CC1)CCC3 (stereo not drawn) | < -6 | – | –
4 | O=C1Nc2cccc3c2C1(CCCCN1CCC(O)(c2ccccc2)CC1)CCC3 (stereo not drawn) | -6.35 | 7.36 | –
5 | Cc1cccc(C)c1N1CCN(CCCCC23CCCc4cccc(c42)NC3=O)CC1 (stereo not drawn) | -5.85 | 6.83 | –
6 | C=CCn1c2c(c3ccccc31)CCN(CCCCC13CCCc4cccc(c41)NC3=O)C2 (stereo not drawn) | -6.55 | 8.22 | –
7 | CC(=O)c1ccccc1N1CCN(CCCCC23CCCc4cccc(c42)NC3=O)CC1 (stereo not drawn) | -6.45 | 8.10 | –
8 | Cc1ccccc1N1CCN(CCCCC23CCCc4cccc(c42)NC3=O)CC1 (stereo not drawn) | -7.35 | 7.98 | –
9 | Cc1ccc(C2=CCN(CCCCC34CCCc5cccc(c53)NC4=O)CC2)cc1 (stereo not drawn) | -6.94 | 8.32 | –
10 | Cn1c2c(c3ccccc31)CCN(CCCCC13CCCc4cccc(c41)NC3=O)C2 (stereo not drawn) | -6.28 | 7.72 | –
11 | O=C1Nc2cccc3c2C1(CCCCN1CCN(c2ccccc2Cl)CC1)CCC3 (stereo not drawn) | -7.01 | 7.91 | –
12 | COC1(c2ccccc2)CCN(CCCCC23CCCc4cccc(c42)NC3=O)CC1 (stereo not drawn) | -6.43 | 7.66 | –
13 | CC(=O)C1(c2ccccc2)CCN(CCCCC23CCCc4cccc(c42)NC3=O)CC1 (stereo not drawn) | -7.01 | 7.14 | –
14 | COc1ccc2[nH]c3c(c2c1)CCN(CCCCC12CCCc4cccc(c41)NC2=O)C3 (stereo not drawn) | -6.17 | 7.53 | –
15 | O=C1Nc2cccc3c2C1(CCCCN1CC=C(c2ccc(F)cc2)CC1)CCC3 (stereo not drawn) | -7.1 | 8.45 | –
16 | O=C1Nc2ccc(O)c3c2C1(CCCCN1CC=C(c2ccccc2)CC1)CCC3 (stereo not drawn) | -7.4 | 8.09 | –
17 | CNC(=O)Cn1c2c(c3ccccc31)CCN(CCCCC13CCCc4cccc(c41)NC3=O)C2 (stereo not drawn) | < -6 | 8.45 | pKi [3]: 6.31; pKi [4]: < 6.00; pKi [5]: 6.89; pKi [6]: < 6.00; Log Ki [7]: > -6
18 | NC(=O)C1(c2ccccc2)CCN(CCCCC23CCCc4cccc(c42)NC3=O)CC1 (stereo not drawn) | -7.8 | 6.65 | –

Row | Structure (SMILES) | Log Ki [1] | pKi [2] | further results
19 | O=C1Nc2cccc3c2C1(CCCCN1CCN(c2ccccc2[N+](=O)[O-])CC1)CCC3 (stereo not drawn) | -7.34 | 7.62 | –
20 | O=C1Nc2cccc3c2C1(CCCCN1CCN(c2ccccc2C(F)(F)F)CC1)CCC3 (stereo not drawn) | -5.86 | 7.13 | –
21 | COc1ccc2c3c1CCCC3(CCCCN1CC=C(c3ccccc3)CC1)C(=O)N2 (stereo not drawn) | -7.55 | 6.96 | –
22 | NC(=O)c1ccc2c3c1CCCC3(CCCCN1CC=C(c3ccccc3)CC1)C(=O)N2 (stereo not drawn) | -6.8 | 6.38 | –
23 | CN1C(=O)C2(CCCCN3CC=C(c4ccccc4)CC3)CCCc3cccc1c32 (stereo not drawn) | -6.88 | 7.60 | –
24 | NC(=O)c1ccccc1N1CCN(CCCCC23CCCc4cccc(c42)NC3=O)CC1 (stereo not drawn) | -6.05 | 7.76 | –
25 | NC(=O)Cn1c2c(c3ccccc31)CCN(CCCCC13CCCc4cccc(c41)NC3=O)C2 (stereo not drawn) | -6.09 | 8.06 | –
26 | O=C1Nc2ccc(Br)c3c2C1(CCCCN1CC=C(c2ccccc2)CC1)CCC3 (stereo not drawn) | -6.54 | 7.91 | –
27 | CC(=O)c1ccc2c3c1CCCC3(CCCCN1CC=C(c3ccccc3)CC1)C(=O)N2 (stereo not drawn) | -7.12 | 7.01 | –
28 | CN(C)C(=O)Cn1c2c(c3ccccc31)CCN(CCCCC13CCCc4cccc(c41)NC3=O)C2 (stereo not drawn) | < -6 | 7.72 | –
29 | COCn1c2c(c3ccccc31)CCN(CCCCC13CCCc4cccc(c41)NC3=O)C2 (stereo not drawn) | -6.24 | 7.77 | –
30 | CC(=O)n1c2c(c3ccccc31)CCN(CCCCC13CCCc4cccc(c41)NC3=O)C2 (stereo not drawn) | -6.27 | 8.19 | –
31 | O=C1Nc2cccc3c2C1(CCCCN1CCc2c([nH]c4ccccc24)C1)CCC3 (stereo not drawn) | -6.62 | 8.24 | –
32 | COc1ccc(N2CCN(CCCCC34CCCc5cccc(c53)NC4=O)CC2)cc1 (stereo not drawn) | -6.69 | 7.69 | –
33 | COc1cccc(N2CCN(CCCCC34CCCc5cccc(c53)NC4=O)CC2)c1 (stereo not drawn) | -7.19 | 8.63 | –
34 | CN(C)C(=O)n1c2c(c3ccccc31)CCN(CCCCC13CCCc4cccc(c41)NC3=O)C2 (stereo not drawn) | -6.12 | 8.15 | –
35 | O=C1Nc2cccc3c2C1(CCCCN1CCN(c2ncccn2)CC1)CCC3 (stereo not drawn) | -6.91 | 7.34 | –
